According to patent US10238623B2, “C14-hydroxyl esterified amino acid derivative of triptolide, and preparation method and use thereof” (HANGZHOU WEBEN PHARMACEUTICALS INC, priority 2015, dated 2019):

Columns and labels:
[1] = tested on: Sup-B15; experiment: MTT growth inhibition, Sup-B15 cells, 72 h; assay type: cell-based, human
Description: (§1) 5000 well-grown leukemia cells or normal human blood cells were taken and seeded into wells of a 96-well cell culture plate. The medium was 1640 cell medium containing 10% fetal bovine serum. 14-D-Valine-TPL with different concentrations was added, and after being uniformly mixed, the plate was placed in a carbon dioxide (5% CO2) cell incubator, and incubated at 37° C. for 72 hours. The concentration of live cells was then determined using the MTT assay. In this experiment, the cell viability in the control group (without the compound treatment) was set to be 100%, and the cell viability (%) after the action of the compound the half maximal growth inhibitory concentration of leukemia cells at 72 hours (IC50 value at 72 hours) and the therapeutic window index were calculated. Therapeutic window index=IC50 value of normal blood cells/IC50 value of leukemia cells. […] A larger therapeutic window indicates a better selectivity of the compound for tumor cells.
(§2) 5000 well-grown leukemia cells were taken and seeded into wells of a 96-well cell culture plate. The medium was 1640 cell medium containing 10% fetal bovine serum. 14-D-Valine-TPL with different concentrations was added, and after being uniformly mixed, the plate was placed in a carbon dioxide (5% CO2) cell incubator, and incubated at 37° C. for 72 hours. The concentration of live cells was then determined using the MTT assay. In this experiment, the cell viability in the control group (without the compound treatment) was set to be 100%, and the cell viability (%) after the action of the compound and the half maximal growth inhibitory concentration of leukemia cells at 72 hours (IC50 value at 72 hours) were calculated.
as §2, with “well-grown lymphocytes” for “well-grown leukemia cells”

[2] = tested on: Molt-4; experiment: MTT growth inhibition, Molt-4 cells, 72 h; assay type: cell-based, human; conditions: for Therapeutic window: IC50 of normal blood cells/IC50 of Molt-4
Description: as §1, §2
as §2, with “well-grown lymphocytes” for “well-grown leukemia cells”

[3] = tested on: CEM; experiment: MTT growth inhibition, CEM cells, 72 h; assay type: cell-based, human
Description: as §1, §2
as §2, with “well-grown lymphocytes” for “well-grown leukemia cells”

[4] = tested on: Jurkat; experiment: MTT growth inhibition, Jurkat cells, 72 h; assay type: cell-based, human
Description: as §1, §2
as §2, with “well-grown lymphocytes” for “well-grown leukemia cells”

[5] = tested on: normal human blood cells; experiment: MTT assay, normal human blood cells, 72 h; assay type: cell-based; conditions: Homo sapiens, 72 h, Normal Blood Cell, Overall, MTT, read-out: IC50
Description: Leukemia cell strains: Sup-B15 (Ph+acute lymphoblastic leukemia), CEM (acute lymphoblastic leukemia, ALL), and Molt-4 (acute lymphoblastic leukemia, ALL). Normal blood cell samples: peripheral blood from healthy volunteers. • Primary reagent: 14-D-Valine-TPL of the invention. Primary instruments: cell incubator and microplate reader. (2) Experimental Method
as §1

[6] = oral and intravenous injection; cited from earlier work
[7] = tested on: L615 leukemia; conditions: mouse, in vivo; cited from earlier work
[8] = tested on: human leukemia; conditions: human leukemia (18/45); cited from earlier work

Compound CC(C)[C@]12O[C@H]1[C@@H]1O[C@]13[C@]1(O[C@H]1C[C@H]1C4=C(CC[C@@]13C)C(=O)OC4)[C@@H]2O [TPL, Triptolide] has an IC50 ([1]; Homo sapiens, Sup-B15, MTT, 72 hours, read-out: IC50) of 23.2 nM, a Therapeutic window ([1]; IC50 of normal blood cells/IC50 of Sup-B15) of 0.94 and an IC50 ([2]; Homo sapiens, Molt-4, MTT, 72 hours, read-out: IC50) of 10.7 nM. The Therapeutic window [2] was 2.03, the Therapeutic window ([2]; listed as triptolide) was 2.0 and the IC50 ([3]; Homo sapiens, CCRF-CEM, CEM, MTT, 72 hours, read-out: IC50) was 23.3 nM. It also gave a Therapeutic window ([3]; IC50 of normal blood cells/IC50 of CEM) of 0.93, an IC50 ([4]; Homo sapiens, Jurkat, MTT, 72 hours, read-out: IC50) of 33.8 nM and a Therapeutic window ([4]; IC50 of normal blood cells/IC50 of Jurkat) of 0.64. For the same compound, the IC50 [5] was 21.7 nM, the “elimination half-life (in words)” value [6] was “short elimination half-life” and the “survival time of L615 leukemia mice” value [7] was “significantly prolong the survival time”. For the same compound, the complete remission rate [8] was “up to 40%”.
